According to paper PMC10442599 (RSC Advances, 2023):
“Also recorded” adds a separate entry of the source.

How the values were obtained:
Format in all cases: biochemical
Recombinant human MAO-A = target: T1, Recombinant human MAO-A (Homo sapiens, UniProt P21397); assay: Inhibition of MAO-A; conditions: for remaining activity at 10 µM: read-out: Residual activities at 10 μM (%) MAO-A
T1 sequence (P21397 1-527): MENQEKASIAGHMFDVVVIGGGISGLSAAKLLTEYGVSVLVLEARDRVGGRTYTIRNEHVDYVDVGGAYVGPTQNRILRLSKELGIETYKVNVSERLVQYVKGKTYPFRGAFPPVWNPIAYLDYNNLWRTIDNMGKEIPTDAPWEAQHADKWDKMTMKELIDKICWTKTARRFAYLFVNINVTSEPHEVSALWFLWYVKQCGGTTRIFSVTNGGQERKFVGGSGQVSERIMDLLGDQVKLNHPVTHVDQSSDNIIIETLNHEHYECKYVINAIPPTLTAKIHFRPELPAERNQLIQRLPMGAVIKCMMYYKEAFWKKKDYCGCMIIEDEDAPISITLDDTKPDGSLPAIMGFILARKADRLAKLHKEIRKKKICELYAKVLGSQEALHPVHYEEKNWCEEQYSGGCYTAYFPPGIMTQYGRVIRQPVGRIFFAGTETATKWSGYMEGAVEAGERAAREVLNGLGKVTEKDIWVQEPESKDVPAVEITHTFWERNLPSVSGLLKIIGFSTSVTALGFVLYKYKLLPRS

MAO-B [1] = target: T2, MAO-B (Homo sapiens, UniProt P27338); assay: Inhibition of MAO-B; conditions: for SI (MAO), selectivity index = IC50 (MAO-A)/IC50(MAO-B): MAO-B over MAO-A; for remaining activity at 10 µM: read-out: Residual activities at 10 μM (%) MAO-B
T2 sequence (P27338 1-520): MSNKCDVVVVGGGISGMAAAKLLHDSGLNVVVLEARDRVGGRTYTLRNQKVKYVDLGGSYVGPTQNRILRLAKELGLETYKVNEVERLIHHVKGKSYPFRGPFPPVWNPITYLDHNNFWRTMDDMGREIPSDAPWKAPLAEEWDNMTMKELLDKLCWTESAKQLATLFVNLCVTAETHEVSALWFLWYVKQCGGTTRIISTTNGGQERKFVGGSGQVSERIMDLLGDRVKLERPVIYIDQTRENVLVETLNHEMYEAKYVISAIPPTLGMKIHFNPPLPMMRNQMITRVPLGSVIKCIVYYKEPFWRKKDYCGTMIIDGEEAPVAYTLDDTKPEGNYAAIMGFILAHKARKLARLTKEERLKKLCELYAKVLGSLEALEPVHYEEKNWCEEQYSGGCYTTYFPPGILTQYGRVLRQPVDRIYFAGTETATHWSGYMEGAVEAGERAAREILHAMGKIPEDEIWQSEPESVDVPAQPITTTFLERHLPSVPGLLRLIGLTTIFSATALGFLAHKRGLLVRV

AChE = assay: Residual activity of AChE at 10 μM; conditions: inhibitor 10 μM
BChE = assay: Residual activity of BChE at 10 μM; conditions: inhibitor 10 μM
MAO-B [2] = target: T2, MAO-B; assay: Enzyme kinetics of MAO-B inhibition
MAO-B [3] = target: T2, MAO-B; assay: Reversibility of MAO-B inhibition by dialysis; conditions: 2-times IC50

SMILES | IC50 (Recombinant human MAO-A) [µM] | remaining activity at 10 µM (Recombinant human MAO-A) [%] | IC50 (MAO-B [1]) [µM] | SI (MAO), selectivity index = IC50 (MAO-A)/IC50(MAO-B) (MAO-B [1]) | remaining activity at 10 µM (MAO-B [1]) [%] | Residual activities at 10 μM (%) AChE (AChE) [%] | Residual activities at 10 μM (%) BChE (BChE) [%] | Ki (MAO-B [2]) [µM] | Type of MAO-B inhibition (MAO-B [2]; Lineweaver–Burk plot) | Reversibility of MAO-B inhibition (MAO-B [3])
O=C1c2cc(Br)ccc2N(Cc2ccccc2)C12CCCC2 [Compound 11d] | 14 ± 0.96 | 62 ± 0.94 | 2.81 ± 0.71 | 5.00 | -16.2 ± 2.34 | 81.90 ± 1.22 | 71.19 ± 4.17 |  |  | 
O=C1c2ccccc2N(Cc2ccccc2Br)C12CCCC2 [Compound 11k] | 9.01 ± 0.36 | 41.9 ± 4.56 | 14.3 ± 1.45 | 0.63 | 60.2 ± 1.44 | 68.03 ± 3.68 | 51.41 ± 0.53 |  |  | 
Cc1ccc2c(c1)C(=O)C1(CCCC1)N2Cc1ccccc1 [Compound 11b] | > 40 | 79.6 ± 5.03 | 5.99 ± 0.36 |  | 26.1 ± 2.75 | 80.92 ± 5.07 | 65.10 ± 0.74 |  |  | 
O=C1c2ccccc2N(Cc2ccc(Br)cc2)C12CCCC2 [Compound 11f] | 17.2 ± 1.14 | 67.9 ± 6.53 | 1.44 ± 0.21 | 11.91 | 5.22 ± 1.06 | 68.95 ± 0.39 | 72.06 ± 6.88 | 0.51 ± 0.023 | competitive inhibitor; also recorded: competitive inhibition | reversible
Cc1ccc2c(c1)C(=O)C1(CCCC1)N2 [Compound 10b] | > 40 | 72.2 ± 3.58 | > 40 |  | 82.2 ± 9.06 | 83.39 ± 1.93 | 73.82 ± 7.10 |  |  | 
O=C1c2ccccc2NC12CCCC2 [Compound 10a] | 20.8 ± 2.89 | 66.9 ± 2.47 | 15.6 ± 2.33 | 1.34 | 57 ± 2.99 | 76.29 ± 6.64 | 73.90 ± 4.90 |  |  | 
